Results from ChEMBL document CHEMBL4825766, “Structure Activity Relationships for a Series of Eticlopride-Based Dopamine D2/D3 Receptor Bitopic Ligands” (J Med Chem, 2021).

Key:
D(2) dopamine receptor = D(2) dopamine receptor (Homo sapiens, UniProt P14416)
D(3) dopamine receptor = D(3) dopamine receptor (Homo sapiens, UniProt P35462)
D(3) dopamine receptor, sequence (P35462 whole entry): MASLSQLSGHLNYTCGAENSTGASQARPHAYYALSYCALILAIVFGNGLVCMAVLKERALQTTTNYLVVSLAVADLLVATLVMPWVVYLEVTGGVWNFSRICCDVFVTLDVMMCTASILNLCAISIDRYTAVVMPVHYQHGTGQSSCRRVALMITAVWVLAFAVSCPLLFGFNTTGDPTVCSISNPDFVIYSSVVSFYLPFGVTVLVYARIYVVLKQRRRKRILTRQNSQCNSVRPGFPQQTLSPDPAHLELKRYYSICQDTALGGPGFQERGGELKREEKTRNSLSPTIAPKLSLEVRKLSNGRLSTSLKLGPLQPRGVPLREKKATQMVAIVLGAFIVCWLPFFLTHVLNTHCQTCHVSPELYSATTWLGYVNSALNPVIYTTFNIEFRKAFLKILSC

D(2) dopamine receptor, sequence (P14416 whole entry): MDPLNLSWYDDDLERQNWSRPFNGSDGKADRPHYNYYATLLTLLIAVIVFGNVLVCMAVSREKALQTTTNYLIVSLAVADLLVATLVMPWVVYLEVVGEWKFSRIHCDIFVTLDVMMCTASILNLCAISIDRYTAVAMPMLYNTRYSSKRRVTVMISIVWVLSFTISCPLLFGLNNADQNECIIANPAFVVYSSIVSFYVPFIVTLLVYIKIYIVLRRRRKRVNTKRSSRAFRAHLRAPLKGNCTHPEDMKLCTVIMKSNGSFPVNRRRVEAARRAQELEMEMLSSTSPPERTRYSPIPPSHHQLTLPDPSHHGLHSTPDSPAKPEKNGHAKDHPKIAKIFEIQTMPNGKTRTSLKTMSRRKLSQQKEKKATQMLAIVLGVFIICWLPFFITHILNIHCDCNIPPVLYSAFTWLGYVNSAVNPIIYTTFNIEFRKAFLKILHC

Row | Structure (SMILES) | Ki (D(2) dopamine receptor) [nM] | Ki (D(3) dopamine receptor) [nM]
1 | CCc1cc(Cl)c(OC)c(C(=O)NC[C@@H]2CCCN2CCCCOc2ccc3c(c2)NC(=O)CC3)c1O | 25.3 | 6.97
2 | CCc1cc(Cl)c(OC)c(C(=O)NC[C@@H]2CCCN2CCCCNC(=O)c2cc3ccccc3o2)c1O | 27.6 | 15.4
3 | CCc1cc(Cl)c(OC)c(C(=O)NC[C@@H]2C[C@@H](OCCCCOCc3ccccc3)CN2)c1O | 7.24 | 1.01
4 | CCc1cc(Cl)c(OC)c(C(=O)NC[C@@H]2CCCN2Cc2ccccc2)c1O | 205 | 28.7
5 | CCCN1CCC(CNC(=O)c2c(O)c(CC)cc(Cl)c2OC)C1 (centres undefined) | 66.4 | 14.3
6 | CCCN1C[C@H](OCCCCOc2ccc3c(c2)NC(=O)CC3)C[C@H]1CNC(=O)c1c(O)c(CC)cc(Cl)c1OC | 2.57 | 0.444
7 | CCc1cc(Cl)c(OC)c(C(=O)NC[C@@H]2CCCN2CCCc2ccccc2)c1O | 162 | 20.4
8 | CCc1cc(Cl)c(OC)c(C(=O)NC[C@@H]2CCCN2Cc2ccccc2)c1OCc1ccccc1 | 2590 | 426
9 | CCc1cc(Cl)c(OC)c(C(=O)NC[C@@H]2C[C@@H](OCCCc3ccccc3)CN2)c1O | 7.42 | 2.63
10 | CCc1cc(Cl)c(OC)c(C(=O)NCC2CCN(CC)C2)c1O (centres undefined) | 38.2 | 19.2
11 | CCc1cc(Cl)c(OC)c(C(=O)NC[C@@H]2CCCN2CCCCNC(=O)c2cc3ccccc3[nH]2)c1O | 173 | 61.1
12 | CCc1cc(Cl)c(OC)c(C(=O)NCC2CCN(C)C2)c1O (centres undefined) | 217 | 100
13 | CCc1cc(Cl)c(OC)c(C(=O)NC[C@@H]2CCCN2CCc2c(C)nc3n(c2=O)CCCC3)c1O | 74.4 | 50.3

Now from value to molecule:

Row | Ki (D(2) dopamine receptor) [nM] | Ki (D(3) dopamine receptor) [nM] | Structure (SMILES)
14 | 1.9 | 0.815 | CCc1cc(Cl)c(OC)c(C(=O)NC[C@@H]2C[C@@H](OCCCCO)CN2)c1O
15 | 2.29 | 0.493 | CCc1cc(Cl)c(OC)c(C(=O)NC[C@@H]2C[C@@H](OCCCCNC(=O)c3cc4ccccc4o3)CN2)c1O
16 | 2.54 | 0.797 | CCc1cc(Cl)c(OC)c(C(=O)NC[C@@H]2C[C@@H](OCCCCNC(=O)c3cc4ccccc4[nH]3)CN2)c1O
17 | 2.26 | 0.431 | CCc1cc(Cl)c(OC)c(C(=O)NC[C@@H]2CCCN2)c1O
18 | 0.688 | 0.281 | CCCN1CCC[C@H]1CNC(=O)c1c(O)c(CC)cc(Cl)c1OC
19 | 1.77 | 0.436 | CCc1cc(Cl)c(OC)c(C(=O)NC[C@@H]2C[C@@H](OCCCCOc3ccc4c(c3)NC(=O)CC4)CN2)c1O
20 | 0.117 |  | CCc1cc(Cl)c(OC)c(C(=O)NC[C@@H]2CCCN2CC)c1O [ETICLOPRIDE]
